# Measurements from US9701681B2, “Fused ring heteroaryl compounds and their use as Trk inhibitors” (CMG Pharmaceutical Co., Ltd., priority 2014, dated 2017).
# Columns and labels:
# TRK A, B & C kinase = target: T1, TRK A, B & C kinase; test: TRK A, B & C kinase assay (ADP-Glo / HTRF KinEASE-TK); type: biochemical; conditions: ADP-Glo or HTRF KinEASE-TK kit, isoform not specified, read-out: IC50 (nM) Enzymatic assay
# T1 construct: fused on or other part: Carna's Trk kinases are usually GST-tagged cytoplasmic domains
# Description: ADP-Glo assay kit was purchased from Promega. poly (Glu, Tyr), Magnesium sulfate, Bovine serum albumin (BSA) and dimethylsulfoxide(DMSO) were purchased from Sigma-Aldrich. Tris-HCl buffer was purchased from BD Gentest. HTRF KinEASE-TK kit was purchased from cisbio. TRK A, B & C kinase was purchased from Carna bioscience.
# Kinase assay was performed for Chemical Compounds 1-61 using two methods using luminescent ADP-Glo assay kit (Promega) and HTRF KinEASE-TK assay kit (cisbio). The luminescent ADP-Glo assay kit (Promega) measures ADP formed from a kinase reaction. ADP converted into ATP, which is then converted into light by Ultra-Glo luciferase. The HTRF KinEASE-TK assay kit (cisbio) measures tyrosine kinase activities using one substrate and a universal detection system.
# ADP-Glo Assay Kit (Promega)
# The protein kinase assay was performed for Chemical Compounds 1-61 at […] concentrations are 0.4 ng/ul of TrKA, 0.5 ng/ul of TrKB and 3 ng/ul of TrKC, respectively), 5 μL of 1 ug/ul stock solution of poly(glu, Tyr), 5 μL of compounds or assay buffer, 5 μL of ATP (125 μM stock solution).
# The assay was started by incubating the reaction mixture in a 96-well plate at 30° C. for 1 hr. After the incubation, the assay was terminated by the addition of 25 […] Detection Reagent was added, and the 96-well plate was shaken and then incubated for additional 30 min at ambient temperature. The 96-well reaction plate was then read on an Enspire plate reader. The IC50 values were derived through a curve fitting using SigmaPlot.
# HTRF KinEASE-TK Assay Kit (Cisbio)
# The HTRF KinEASE-TK assay was performed for Chemical Compounds 1-61 in 384-well low volume microplate (Greiner). The HTRF KinEASE-TK assay format involves the two steps. The first step is kinase reaction step. This kinase reaction step was performed at RT (room temperature) in final volume of 10 ul according to the following assay reaction recipe: 10 ul of kinase mixture (Kinase (2 ul)+ATP (2 ul)+Substrate (2 ul)+Compound (4 ul)). Kinase final concentrations were 0.3 ng/ul of TRKA, 0.1 ng/ul of TRKB, 0.03 ng/ul of TRKC, respectively. ATP final concentrations were 14.7 uM (TRKA), 4.77 uM (TRKB), 25.6 uM (TRKC) respectively. TK-substrate final concentration was 0.3 ng/ul. The mixtures exposed to Dose response concentration (DRC) compound from 0 to 100 nM for 40 min. During the kinase reaction step, the kinase reaction was started by the addition of ATP. Kinase phosphorylates the substrate.
# The second is detection step. 10 ul of detection reagents (5 ul Sa-XL 665 in EDTA+5 ul TK Antibody-Eu in EDTA) was added to kinase mixture. This step was performed at room temperature for 1 hr. The detection reagent detects phosphorylated substrates.
# Finally 384-well reaction plate was then read on FlexStation 3 machine. The fluorescence was measured at 620 nm (Cryptate) and 665 nm (XL665). A ratio is calculated ([…]/620)×10^4 for each well. The IC50 value was derived through a curve fitting using GraphPad Prism. Table 1 below includes the results of the assays.
# TF-1 cells = test: Cell proliferation assay (TF-1); conditions: 10 ng/ml human β-NGF, 72 hours exposure, read-out: IC50 (nM) Cell-based assay (TF-1)
# Description: (§1) Doxorubicin was purchased from Sigma Aldrich (D1515). All compounds were diluted in DMSO (Sigma Aldrich, D2650). AlamarBlue® cell viability reagent was purchased from Thermo Scientific (88952). CellTiter 96® AQueous One Solution Cell proliferation assay was purchased from Promega. KM12-luc cells were obtained from JCRB (National Institute of Health Sciences, Tokyo, Japan). They were maintained in DMEM medium (GIB-11965-118) supplemented with 10% fetal bovine serum (Gibco, 16000-044) and MEM Non-Essential Amino Acids Solution (Thermo Scientific, 11140-050). TF-1 cells were obtained from ATCC. They were maintained in RPMI medium (GIB-A10491) supplemented with 10% fetal bovine serum (Gibco, 16000-044), GM-CSF (Thermo Scientific, 11140-050), and β-NGF (R&D systems). Trypsin/EDTA was purchased from Gibco (GIB-25300-054, 0.05%). 96-well plates were purchased from Corning Inc.
# (§2) The proliferation assay was performed for Chemical Compounds 1-61 s in media supplemented with 10% FBS, using AlamarBlue® cell viability reagent or CellTiter 96® AQueous One Solution Cell proliferation assay kit. Cells were cultured in humidified 37° C. incubator with 5% CO2. To evaluate the antiproliferation activity of compounds, TF-1 cells were adjusted to GM-CSF free media (RPMI, 10% FBS, and 1% penicillin-streptomycin) for 16 hr and were seeded in 96-well plates at 30,000 cells/well with medium (RPMI, 10% FBS, 1% penicillin-streptomycin and 10 ng/ml human β-NGF). KM12-luc were seeded at 10,000 cells per well into 96-well plates. After overnight incubation, serial dilutions of compounds were added to triplicate wells, and cells were exposed for 72 hours. The final concentration of DMSO was adjusted to 0.5% in media. Quantitation of cell growth was assessed using two kinds of reagent. 20 ul of AlamarBlue® reagent in an amount equal to 10% of the culture volume was added to each well and were incubated in humidified 37° C. incubator with 5% CO2 for 2 hr. Otherwise, 20 ul of CellTiter 96® reagent was added to each well and were incubated in the same conditions as previously described. Data were plotted, and GI50 values were calculated using GraphPad software. Table 1 below includes the results of the assays.
# KM12-luc cells = test: Cell proliferation assay (KM12); conditions: 72 hours exposure, read-out: IC50 (nM) Cell-based assay (KM12)
# Description: as §1, §2
Compound,"IC50 (TRK A, B & C kinase)",IC50 (TF-1 cells),IC50 (KM12-luc cells)
"Cc1nnc(-c2cnn3ccc(N4CCCC4c4cc(F)ccc4F)nc23)o1 (stereo not drawn) [Chemical Compound 1, 2-(5-(2-(2,5-difluorophenyl)pyrrolidin-1-yl)pyrazolo[1,5-a]pyrimidin-3-yl)-5-methyl-1,3,4-oxadiazole]",< 10 nM,< 100 nM,< 100 nM
"Cc1nnc(-c2cnn3ccc(N4CCCC4c4cc(F)ccc4F)nc23)s1 (stereo not drawn) [Chemical Compound 2, 2-(5-(2-(2,5-difluorophenyl)pyrrolidin-1-yl)pyrazolo[1,5-a]pyrimidin-3-yl)-5-methyl-1,3,4-thiadiazole]",< 10 nM,< 10 nM,< 100 nM
"CCc1nnc(-c2cnn3ccc(N4CCCC4c4cc(F)ccc4F)nc23)o1 (stereo not drawn) [Chemical Compound 3, 2-(5-(2-(2,5-difluorophenyl)pyrrolidin-1-yl)pyrazolo[1,5-a]pyrimidin-3-yl)-5-ethyl-1,3,4-oxadiazole]",< 10 nM,< 10 nM,< 100 nM
"CCc1nnc(-c2cnn3ccc(N4CCCC4c4cc(F)ccc4F)nc23)s1 (stereo not drawn) [Chemical Compound 4, 2-(5-(2-(2,5-difluorophenyl)pyrrolidin-1-yl)pyrazolo[1,5-a]pyrimidin-3-yl)-5-ethyl-1,3,4-thiadiazole]",< 10 nM,< 10 nM,< 100 nM
"CC(C)c1nnc(-c2cnn3ccc(N4CCCC4c4cc(F)ccc4F)nc23)o1 (stereo not drawn) [Chemical Compound 5, 2-(5-(2-(2,5-difluorophenyl)pyrrolidin-1-yl)pyrazolo[1,5-a]pyrimidin-3-yl)-5-isopropyl-1,3,4-oxadiazole]",< 10 nM,< 10 nM,< 10 nM
"CC(C)c1nnc(-c2cnn3ccc(N4CCCC4c4cc(F)ccc4F)nc23)s1 (stereo not drawn) [Chemical Compound 6, 2-(5-(2-(2,5-difluorophenyl)pyrrolidin-1-yl)pyrazolo[1,5-a]pyrimidin-3-yl)-5-isopropyl-1,3,4-thiadiazole]",< 10 nM,< 10 nM,< 10 nM
"Fc1ccc(F)c(C2CCCN2c2ccn3ncc(-c4nnc(C5CC5)o4)c3n2)c1 (stereo not drawn) [Chemical Compound 7, 2-cyclopropyl-5-(5-(2-(2,5-difluorophenyl)pyrrolidin-1-yl)pyrazolo[1,5-a]pyrimidin-3-yl)-1,3,4-oxadiazole]",< 10 nM,< 10 nM,< 100 nM
"Fc1ccc(F)c(C2CCCN2c2ccn3ncc(-c4nnc(C5CC5)s4)c3n2)c1 (stereo not drawn) [Chemical Compound 8, 2-cyclopropyl-5-(5-(2-(2,5-difluorophenyl)pyrrolidin-1-yl)pyrazolo[1,5-a]pyrimidin-3-yl)-1,3,4-thiadiazole]",< 10 nM,< 10 nM,< 100 nM
"CC(C)(C)c1nnc(-c2cnn3ccc(N4CCCC4c4cc(F)ccc4F)nc23)o1 (stereo not drawn) [Chemical Compound 9, 2-tert-butyl-5-(5-(2-(2,5-difluorophenyl)pyrrolidin-1-yl)pyrazolo[1,5-a]pyrimidin-3-yl)-1,3,4-oxadiazole]",< 10 nM,< 10 nM,< 10 nM
"CC(C)(C)c1nnc(-c2cnn3ccc(N4CCCC4c4cc(F)ccc4F)nc23)s1 (stereo not drawn) [Chemical Compound 10, 2-tert-butyl-5-(5-(2-(2,5-difluorophenyl)pyrrolidin-1-yl)pyrazolo[1,5-a]pyrimidin-3-yl)-1,3,4-thiadiazole]",< 10 nM,< 10 nM,< 10 nM
"Cc1nnc(-c2cnn3ccc(N4CCCC4c4cncc(F)c4)nc23)s1 (stereo not drawn) [Chemical Compound 11, 2-(5-(2-(5-fluoropyridin-3-yl)pyrrolidin-1-yl)pyrazolo[1,5-a]pyrimidin-3-yl)-5-methyl-1,3,4-thiadiazole]",< 10 nM,< 100 nM,< 100 nM
"(E)-3-(5-((R)-2-(2,5-difluorophenyl)pyrrolidin-1-yl)pyrazolo[1,5-a]pyrimidin-3-yl)-1-((R)-3-hydroxypyrrolidin-1-yl)prop-2-en-1-one [Chemical Compound 59]",< 10 nM,–,< 100 nM
"(R,E)-3-(5-(2-(2,5-difluorophenyl)pyrrolidin-1-yl)pyrazolo[1,5-a]pyrimidin-3-yl)-1-(4-hydroxypiperidin-1-yl)prop-2-en-1-one [Chemical Compound 57]",< 10 nM,–,< 100 nM

# The next lines start with results.
"IC50 (TRK A, B & C kinase)",Compound,IC50 (TF-1 cells),IC50 (KM12-luc cells)
< 10 nM,"CCc1nnc(-c2cnn3ccc(N4CCCC4c4cncc(F)c4)nc23)s1 (stereo not drawn) [Chemical Compound 12, 2-ethyl-5-(5-(2-(5-fluoropyridin-3-yl)pyrrolidin-1-yl)pyrazolo[1,5-a]pyrimidin-3-yl)-1,3,4-thiadiazole]",< 100 nM,< 100 nM
< 10 nM,"CC(C)c1nnc(-c2cnn3ccc(N4CCCC4c4cncc(F)c4)nc23)s1 (stereo not drawn) [Chemical Compound 13, 2-(5-(2-(5-fluoropyridin-3-yl)pyrrolidin-1-yl)pyrazolo[1,5-a]pyrimidin-3-yl)-5-isopropyl-1,3,4-thiadiazole]",< 100 nM,< 100 nM
< 10 nM,"Fc1cncc(C2CCCN2c2ccn3ncc(-c4nnc(C5CC5)s4)c3n2)c1 (stereo not drawn) [Chemical Compound 14, 2-cyclopropyl-5-(5-(2-(5-fluoropyridin-3-yl)pyrrolidin-1-yl)pyrazolo[1,5-a]pyrimidin-3-yl)-1,3,4-thiadiazole]",< 100 nM,< 100 nM
< 10 nM,"CC(C)(C)c1nnc(-c2cnn3ccc(N4CCCC4c4cncc(F)c4)nc23)s1 (stereo not drawn) [Chemical Compound 15, 2-tert-butyl-5-(5-(2-(5-fluoropyridin-3-yl)pyrrolidin-1-yl)pyrazolo[1,5-a]pyrimidin-3-yl)-1,3,4-thiadiazole]",< 100 nM,< 100 nM
< 10 nM,"O=C(/C=C/c1cnn2ccc(N3CCC[C@@H]3c3cc(F)ccc3F)nc12)N1CC[C@H](O)C1 [Chemical Compound 60, (E)-3-(5-((R)-2-(2,5-difluorophenyl)pyrrolidin-1-yl)pyrazolo[1,5-a]pyrimidin-3-yl)-1-((S)-3-hydroxypyrrolidin-1-yl)prop-2-en-1-one]",–,< 100 nM
